According to patent US20050238634A1, “Method, compositions and kits for increasing the oral bioavailability of pharmaceutical agents” (Baker Norton Pharmaceuticals, Inc., priority 1995, published 2005):
Read-outs that look alike come from different tables or passages of the source. One block for each compound: values may come before it.

How the values were obtained:
[1] = reports in the literature; cited from earlier work
[2] = male, Sprague-Dawley, rat, in vivo
[3] = etoposide capsules; cited from earlier work
[4] = 3H-etoposide IV, oral, oral with cyclosporin in rats, whole blood radioactivity (Example 6, NP960102); format: in vivo
[5] = Sprague Dawley, rat, in vivo
[6] = Sprague Dawley, rat, in vivo; remark: listed apart in the source
[7] = oral; cited from earlier work
in vivo = details: Sprague Dawley, rat
metastatic breast cancer = details: continuous 96-hour infusion every three weeks; taxane-failure patients; cited from earlier work
[8] = not given; remark: listed apart in the source
[9] = not given; remark: listed apart in the source
[10] = Repeated oral co-administration of paclitaxel with CsA, plasma levels; format: in vivo, rats; details: repeated regimen
[11] = oral 3H-paclitaxel 9 mg/kg, cyclosporin dose 2 × 5 mg/kg oral
[12] = radioactivity of oral 3H-paclitaxel 9 mg/kg, cyclosporin dose 2 × 5 mg/kg oral
[13] = Grp C, etoposide 1/PO with CsA 5/PO before and with
[14] = Sprague Dawley, rat, in vivo, po
[15] = Sprague Dawley, rat, in vivo, po, 9 mg/kg
[16] = total radioactivity, Paclitaxel IV 9 mg/kg

Compound: C/C=C/C[C@@H](C)[C@@H](OC(C)=O)[C@H]1C(=O)N[C@@H](CC)C(=O)N(C)CC(=O)N(C)[C@@H](CC(C)C)C(=O)N[C@@H](C(C)C)C(=O)N(C)[C@@H](CC(C)C)C(=O)N[C@@H](C)C(=O)N[C@H](C)C(=O)N(C)[C@@H](CC(C)C)C(=O)N(C)[C@@H](CC(C)C)C(=O)N(C)[C@@H](C(C)C)C(=O)N1C [Cyclosporin Acetyl A, acetyl cyclosporin A]
% Absorption [11]: 25.4% | AUC0-24 [12]: 8.39 μg eq. hr/ml

Compound: C/C=C/C[C@@H](C)[C@@H](O)[C@H]1C(=O)N[C@@H]([C@@H](C)O)C(=O)N(C)CC(=O)N(C)[C@@H](CC(C)C)C(=O)N[C@@H](C(C)C)C(=O)N(C)[C@@H](CC(C)C)C(=O)N[C@@H](C)C(=O)N[C@H](C)C(=O)N(C)[C@@H](CC(C)C)C(=O)N(C)[C@@H](CC(C)C)C(=O)N(C)[C@@H](C(C)C)C(=O)N1C [Cyclosporin C, cyclosporin C]
% Absorption [11]: 34.5% | AUC0-24 [12]: 11.39 μg eq. hr/ml

Compound: C/C=C/C[C@@H](C)[C@@H](O)[C@H]1C(=O)N[C@@H](C(C)C)C(=O)N(C)CC(=O)N(C)[C@@H](CC(C)C)C(=O)N[C@@H](C(C)C)C(=O)N(C)[C@@H](CC(C)C)C(=O)N[C@@H](C)C(=O)N[C@H](C)C(=O)N(C)[C@@H](CC(C)C)C(=O)N(C)[C@@H](CC(C)C)C(=O)N(C)[C@@H](C(C)C)C(=O)N1C [Cyclosporin D, cyclosporin D]
immunosuppressive activity [1]: least immunosuppressive activity

Compound: CCCC[C@@H](C)[C@@H](O)[C@H]1C(=O)N[C@@H](CC)C(=O)N(C)CC(=O)N(C)[C@@H](CC(C)C)C(=O)N[C@@H](C(C)C)C(=O)N(C)[C@@H](CC(C)C)C(=O)N[C@@H](C)C(=O)N[C@H](C)C(=O)N(C)[C@@H](CC(C)C)C(=O)N(C)[C@@H](CC(C)C)C(=O)N(C)[C@@H](C(C)C)C(=O)N1C [Cyclosporin Dihydro A, dihydro cyclosporin A]
AUC0-24 [12]: 8.5 μg eq. hr/ml

Compound: C/C=C/C[C@@H](C)C[C@H]1C(=O)N[C@@H](CC)C(=O)N(C)CC(=O)N(C)[C@@H](CC(C)C)C(=O)N[C@@H](C(C)C)C(=O)N(C)[C@@H](CC(C)C)C(=O)N[C@@H](C)C(=O)N[C@H](C)C(=O)N(C)[C@@H](CC(C)C)C(=O)N(C)[C@@H](CC(C)C)C(=O)N(C)[C@@H](C(C)C)C(=O)N1C [Cyclosporin F, cyclosporin F]
immunosuppressive activity [1]: does not display immunosuppressive activity | AUC0-24 (oral 3H-paclitaxel 9 mg/kg, cyclosporin dose 2 × 10 mg/kg oral): 11.99 μg eq. hr/ml | AUC0-24 [12]: 8.99 μg eq. hr/ml | activity in promoting oral absorption of paclitaxel (whole blood radioactivity profiles, 5 mg/kg oral before and with paclitaxel 9 mg/kg): enhances the oral bioavailability of paclitaxel

Compound: C/C=C/C[C@@H](C)[C@@H](O)[C@H]1C(=O)N[C@@H](CCC)C(=O)N(C)CC(=O)N(C)[C@@H](CC(C)C)C(=O)N[C@@H](C(C)C)C(=O)N(C)[C@@H](CC(C)C)C(=O)N[C@@H](C)C(=O)N[C@H](C)C(=O)N(C)[C@@H](CC(C)C)C(=O)N(C)[C@@H](CC(C)C)C(=O)N(C)[C@@H](C(C)C)C(=O)N1C [Cyclosporin G, cyclosporin G]
% Absorption [11]: 40.0% | AUC0-24 [12]: 13.22 μg eq. hr/ml

Compound: C/C=C/C[C@@H](C)[C@@H](O)[C@H]1C(=O)N[C@@H](CC)C(=O)N(C)CC(=O)N(C)[C@@H](CC(C)C)C(=O)N[C@@H](C(C)C)C(=O)N[C@@H](CC(C)C)C(=O)N[C@@H](C)C(=O)N[C@H](C)C(=O)N(C)[C@@H](CC(C)C)C(=O)N(C)[C@@H](CC(C)C)C(=O)N(C)[C@@H](C(C)C)C(=O)N1C [Cyclosporin U, cyclosporin U]
% Absorption [11]: 15.2% | AUC0-24 [12]: 5.02 μg eq. hr/ml

t½ [2]: 26.6 h
Compound: OCCN(CCO)c1nc(N2CCCCC2)c2nc(N(CCO)CCO)nc(N3CCCCC3)c2n1 [Dipyridamole, dipyridamole]

Cmax ([4]; Grp A, etoposide only 1/IV): 2.16 ug*eq/mL | t½ ([4]; Grp A, etoposide only 1/IV): 26.5 h | AUC0-24 ([4]; Grp A, etoposide only 1/IV, total radioactivity): 1080 ng·h/mL | AUC0-24 ([4]; Grp B, etoposide only 1/PO): 610 ng·h/mL | Cmax ([4]; Grp B, etoposide only 1/PO): 0.03 ug*eq/mL | F % ([4]; Grp B, etoposide only 1/PO): 56.5% | t½ ([4]; Grp B, etoposide only 1/PO): 19.1 h | AUC0-24 [4, 13]: 1040 ng·h/mL | Cmax [4, 13]: 0.12 ug*eq/mL | F % [4, 13]: 96.3% | t½ [4, 13]: 18.1 h | F % ([4]; Grp C, etoposide 1/PO with CsA 5/PO before and with, listed as etoposide): about 96%
Compound: COc1cc([C@@H]2c3cc4c(cc3[C@@H](O[C@@H]3O[C@@H]5CO[C@@H](C)O[C@H]5[C@H](O)[C@H]3O)[C@H]3COC(=O)[C@H]23)OCO4)cc(OC)c1O [Etoposide, etoposide]
mean value of oral bioavailability [3]: approximately 50%

t½ [2]: 9.23 h
Compound: CC(=O)N1CCN(c2ccc(OCC3COC(Cn4ccnc4)(c4ccc(Cl)cc4Cl)O3)cc2)CC1 (centres unmarked) [Ketoconazole, ketoconazole]

t½ [2]: 23.1 h
Compound: CC(=O)O[C@]1(C(C)=O)CC[C@H]2[C@@H]3C=C(C)C4=CC(=O)CC[C@]4(C)[C@H]3CC[C@@]21C [Magace, megestrol acetate]

Compound: CC(=O)O[C@H]1C(=O)[C@@]2(C)[C@H]([C@H](OC(=O)c3ccccc3)[C@]3(O)C[C@H](OC(=O)[C@H](O)[C@@H](NC(=O)c4ccccc4)c4ccccc4)C(C)=C1C3(C)C)[C@]1(OC(C)=O)CO[C@@H]1C[C@@H]2O [Paclitaxel, paclitaxel]
Absolute F [5]: 0.9% | V ([6]; iv): 4.236 L/kg | AUC0-[…] ([6]; po): 349 ng·h/mL | F % ([6]; po): 1.7% | V ([6]; po): 5.029 L/kg | absorbed when administered orally [7]: less than 1% | bioavailability (in vivo; in vivo, po): < 1% | AUC(0-t) (in vivo; serum, oral, 9 mg/kg): 80 ng·h/mL | response rate (metastatic breast cancer): 27% | F (%) Based on AUC0-00 [8, 14]: 16.4% | F (%) based on AUC0-24 hr [8, 14]: 5.9% | AUC0-00 [8, 15]: 4.5 μg equiv. hr/mL | AUC0-24 hr [8, 15]: 1.4 μg equiv. hr/mL | AUC0-00 [8, 16]: 27.4 μg equiv. hr/mL | AUC0-24 hr [8, 16]: 23.8 μg equiv. hr/mL | AUC0-24 ([9]; NP951001, paclitaxel only 9/IV): 32.04 µg·h/mL | AUC0-24 ([9]; NP951001, paclitaxel only 9/PO): 3.24 µg·h/mL | % Dose in urine (4-24 hr) ([9]; Sprague Dawley, rat, in vivo, iv): 2.2% | % Dose in urine (4-24 hr) [9, 14]: 1.9% | AUC0-24 [9, 14]: 3.2 μg eq × hr/ml | Tmax [9, 14]: 25 h | AUC0-24 ([9]; total radioactivity in blood, IV (A)): 32.8 μg eq × hr/ml | steady state plasma levels of paclitaxel achieved [10]: by the third day

t½ [2]: 20.0 h
Compound: CC(=O)[C@H]1CC[C@H]2[C@@H]3CCC4=CC(=O)CC[C@]4(C)[C@H]3CC[C@]12C [Progesterone, progesterone]

Compound: dihydro cyclosporin C [Cyclosporin Dihydro C]
% Absorption [11]: 45.1% | AUC0-24 [12]: 13.09 μg eq. hr/ml
